According to patent publication US7091202B2, “4-arylspirocycloalkyl-2-aminopyrimidine carboxamide KCNQ potassium channel modulators” (Bristol-Myers Squibb Company, priority 2004, dated 2006):

Target: T1, hQ23 (HEK-293 cell line stably transfected with one of the members of the KCNQ family) (Homo sapiens, UniProt O43525+O43526)
T1 construct: expressed in transfected cells; host or cells: HEK-293, stably transfected
Assay: Thallium flux assay for KCNQ channel blockers (FLIPR, BTC dye)
Format: cell-based
Conditions: Table 2; thallium flux, HEK-293
How it was run: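 HEK-293 cells stably expressing a KCNQ member, loaded with BTC-AM (2 μM) in chloride-free buffer, pH 7.3; compounds added at 1% DMSO, then Tl2SO4 stimulus on FLIPR (488/540 nm, 60 s). Minimal active concentration set at ≥4 SD above negative control; IC50 from 10-point 1:3 series, single-site logistic fit versus the positive-control blocker.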

T1 sequence (O43526 whole entry): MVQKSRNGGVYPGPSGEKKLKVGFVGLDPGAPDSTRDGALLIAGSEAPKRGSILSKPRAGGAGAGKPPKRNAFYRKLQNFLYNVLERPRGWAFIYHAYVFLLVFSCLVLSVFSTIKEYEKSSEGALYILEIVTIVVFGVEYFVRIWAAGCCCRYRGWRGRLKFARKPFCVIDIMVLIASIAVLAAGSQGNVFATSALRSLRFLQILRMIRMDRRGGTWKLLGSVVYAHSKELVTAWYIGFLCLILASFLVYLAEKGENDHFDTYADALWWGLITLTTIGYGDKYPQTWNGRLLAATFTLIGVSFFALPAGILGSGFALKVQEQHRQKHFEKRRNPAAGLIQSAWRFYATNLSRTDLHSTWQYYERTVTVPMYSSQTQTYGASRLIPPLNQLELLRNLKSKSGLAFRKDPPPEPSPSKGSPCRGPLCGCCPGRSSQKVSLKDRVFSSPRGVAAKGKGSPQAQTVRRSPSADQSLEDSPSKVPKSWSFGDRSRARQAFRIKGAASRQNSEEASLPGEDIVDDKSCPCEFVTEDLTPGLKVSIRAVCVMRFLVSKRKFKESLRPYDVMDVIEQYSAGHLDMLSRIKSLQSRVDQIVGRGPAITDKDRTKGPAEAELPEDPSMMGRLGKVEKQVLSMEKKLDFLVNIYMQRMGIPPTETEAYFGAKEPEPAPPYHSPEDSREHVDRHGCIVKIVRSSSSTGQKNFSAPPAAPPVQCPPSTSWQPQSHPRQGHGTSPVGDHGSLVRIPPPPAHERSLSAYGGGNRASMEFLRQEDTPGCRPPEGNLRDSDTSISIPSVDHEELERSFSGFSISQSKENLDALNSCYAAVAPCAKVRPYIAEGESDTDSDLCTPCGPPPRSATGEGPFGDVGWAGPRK
T1 sequence (O43525 whole entry): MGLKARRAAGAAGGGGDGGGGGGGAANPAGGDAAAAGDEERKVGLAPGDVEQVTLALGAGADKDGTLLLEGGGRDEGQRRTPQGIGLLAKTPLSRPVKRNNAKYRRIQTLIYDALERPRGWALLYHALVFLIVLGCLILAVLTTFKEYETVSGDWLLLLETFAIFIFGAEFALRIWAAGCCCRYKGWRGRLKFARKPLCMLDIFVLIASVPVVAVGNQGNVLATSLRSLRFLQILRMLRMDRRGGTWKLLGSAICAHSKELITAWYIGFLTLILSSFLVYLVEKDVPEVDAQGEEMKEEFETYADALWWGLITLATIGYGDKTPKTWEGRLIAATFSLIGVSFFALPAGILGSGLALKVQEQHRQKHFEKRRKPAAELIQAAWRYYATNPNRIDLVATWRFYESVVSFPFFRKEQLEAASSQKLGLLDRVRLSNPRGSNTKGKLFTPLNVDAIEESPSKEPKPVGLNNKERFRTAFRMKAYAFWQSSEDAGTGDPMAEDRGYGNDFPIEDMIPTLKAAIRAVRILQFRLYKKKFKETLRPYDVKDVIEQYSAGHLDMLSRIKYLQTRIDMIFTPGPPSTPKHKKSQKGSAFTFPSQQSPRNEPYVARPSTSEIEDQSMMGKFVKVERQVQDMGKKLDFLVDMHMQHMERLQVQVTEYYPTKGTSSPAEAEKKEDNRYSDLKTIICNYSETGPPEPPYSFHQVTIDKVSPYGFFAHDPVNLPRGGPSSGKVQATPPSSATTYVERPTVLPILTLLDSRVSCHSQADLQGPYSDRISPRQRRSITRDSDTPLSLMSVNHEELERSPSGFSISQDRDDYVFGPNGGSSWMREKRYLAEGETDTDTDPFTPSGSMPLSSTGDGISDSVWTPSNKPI

Row | SMILES | EC50 [nM]
1 | CC1CCN(c2ncc(C(=O)NCc3ccc(F)cc3F)c(C3(c4ccccc4)CC3)n2)CC1 [Example 43, 5-pyrimidinecarboxamide, N-[(2,4-difluorophenyl)methyl]-2-(4-methyl-1-piperidinyl)-4-(1-phenylcyclopropyl)-] | 919
2 | O=C(NCc1ccc2c(c1)OCO2)c1cnc(N2CCCC2)nc1C1(c2ccccc2)CC1 [Example 32, 5-pyrimidinecarboxamide, N-(1,3-benzodioxol-5-ylmethyl)-4-(1-phenylcyclopropyl)-2-(1-pyrrolidinyl)-] | 413
3 | CC1CCCN(c2ncc(C(=O)N[C@H](C)c3cccc4ccccc34)c(C3(c4ccccc4)CC3)n2)C1 (stereo partly drawn) [Example 34, 5-pyrimidinecarboxamide, 2-(3-methyl-1-piperidinyl)-N-[(1R)-1-(1-naphthalenyl)ethyl]-4-(1-phenylcyclopropyl)-] | 107
4 | CCN(Cc1ccccc1)C(=O)c1cnc(NC2CCC(C)CC2)nc1C1(c2ccccc2)CC1 (stereo not drawn) [Example 29, 5-pyrimidinecarboxamide, N-ethyl-2-[(4-methylcyclohexyl)amino]-4-(1-phenylcyclopropyl)-N-(phenylmethyl)-] | 607

Same assay, conditions: Table 3; thallium flux, HEK-293

Row | SMILES | EC50 [nM]
5 | CCC(C)Nc1ncc(C(=O)NCc2ccc3c(c2)OCO3)c(C2(c3ccc(Cl)cc3)CCC2)n1 (stereo not drawn) [Example 59, 5-pyrimidinecarboxamide, N-(1,3-benzodioxol-5-ylmethyl)-4-[1-(4-chlorophenyl)cyclobutyl]-2-[(1-methylpropyl)amino]-] | 405
6 | CC1CCCN(c2ncc(C(=O)NCc3ccc(Cl)cc3Cl)c(C3(c4ccc(Cl)cc4)CCC3)n2)C1 (stereo not drawn) [Example 63, 5-pyrimidinecarboxamide, 4-[1-(4-chlorophenyl)cyclobutyl]-N-[(2,4-dichlorophenyl)methyl]-2-(3-methyl-1-piperidinyl)-] | 14

Same assay, conditions: hQ23 cells, thallium flux

Row | SMILES | EC50 [nM]
7 | CCC(C)Nc1ncc(C(=O)NCc2ccc(Cl)cc2Cl)c(C2(c3ccccc3)CCCC2)n1 (stereo not drawn) [Example 114, 5-pyrimidinecarboxamide, N-[(2,4-dichlorophenyl)methyl]-2-[(1-methylpropyl)amino]-4-(1-phenylcyclopentyl)-] | 102
8 | O=C(NCc1ccc(F)cc1F)c1cnc(N2CCCC2)nc1C1(c2ccccc2)CCCC1 [Example 117, 5-pyrimidinecarboxamide, N-[(2,4-difluorophenyl)methyl]-4-(1-phenylcyclopentyl)-2-(1-pyrrolidinyl)-] | 127
9 | CN1CCN(c2ncc(C(=O)NCc3ccc(Cl)cc3Cl)c(C3(c4ccc(Cl)cc4)CCCC3)n2)CC1 [Example 179, 5-pyrimidinecarboxamide, 4-[1-(4-chlorophenyl)cyclopentyl]-N-[(2,4-dichlorophenyl)methyl]-2-(4-methyl-1-piperazinyl)-] | 535
10 | O=C(NCc1ccc2c(c1)OCO2)c1cnc(N2CCCC2)nc1C1(c2ccc(Cl)cc2)CCCC1 [Example 152, 5-pyrimidinecarboxamide, N-(1,3-benzodioxol-5-ylmethyl)-4-[1-(4-chlorophenyl)cyclopentyl]-2-(1-pyrrolidinyl)-] | 107
11 | CC1CCN(c2ncc(C(=O)N(C)Cc3ccccc3)c(C3(c4ccc(F)cc4)CCCC3)n2)CC1 [Example 206, 5-pyrimidinecarboxamide, 4-[1-(4-fluorophenyl)cyclopentyl]-N-methyl-2-(4-methyl-1-piperidinyl)-N-(phenylmethyl)-] | 261
12 | CC1CCCN(c2ncc(C(=O)NC(C)c3cccc4ccccc34)c(C3(c4ccc(Cl)cc4)CCCC3)n2)C1 (stereo not drawn) [Example 160, 5-pyrimidinecarboxamide, 4-[1-(4-chlorophenyl)cyclopentyl]-2-(3-methyl-1-piperidinyl)-N-[1-(1-naphthalenyl)ethyl]-] | 30
13 | CC1CCN(c2ncc(C(=O)N(C)Cc3ccccc3)c(C3(c4ccc(Cl)cc4)CCCC3)n2)CC1 [Example 140, 5-pyrimidinecarboxamide, 4-[1-(4-chlorophenyl)cyclopentyl]-N-methyl-2-(4-methyl-1-piperidinyl)-N-(phenylmethyl)-] | 246
14 | CC1CCC(Nc2ncc(C(=O)NCc3ccc(Cl)c(Cl)c3)c(C3(c4ccccc4)CCCC3)n2)CC1 (stereo not drawn) [Example 106, 5-pyrimidinecarboxamide, N-[(3,4-dichlorophenyl)methyl]-2-[(4-methylcyclohexyl)amino]-4-(1-phenylcyclopentyl)-] | 130
15 | O=C(NCc1ccc2c(c1)OCO2)c1cnc(NC2CC2)nc1C1(c2ccccc2)CCCC1 [Example 89, 5-pyrimidinecarboxamide, N-(1,3-benzodioxol-5-ylmethyl)-2-(cyclopropylamino)-4-(1-phenylcyclopentyl)-] | 692
16 | CCN(C)C(=O)c1cnc(N2CCCC(C)C2)nc1C1(c2ccc(F)cc2)CCCC1 (stereo not drawn) [Example 226, 5-pyrimidinecarboxamide, N-ethyl-4-[1-(4-fluorophenyl)cyclopentyl]-N-methyl-2-(3-methyl-1-piperidinyl)-] | 505
17 | CC1CCN(c2ncc(C(=O)NCc3ccc(Cl)c(Cl)c3)c(C3(c4ccc(Cl)cc4)CCCC3)n2)CC1 [Example 175, 5-pyrimidinecarboxamide, 4-[1-(4-chlorophenyl)cyclopentyl]-N-[(3,4-dichlorophenyl)methyl]-2-(4-methyl-1-piperidinyl)-] | 10
18 | O=C(NCc1ccc(Cl)cc1Cl)c1cnc(N2CCCC2)nc1C1(c2ccc(Cl)cc2)CCCC1 [Example 178, 5-pyrimidinecarboxamide, 4-[1-(4-chlorophenyl)cyclopentyl]-N-[(2,4-dichlorophenyl)methyl]-2-(1-pyrrolidinyl)-] | 74
19 | CC1CCC(Nc2ncc(C(=O)N(C)C3CCCCC3)c(C3(c4ccc(F)cc4)CCCC3)n2)CC1 (stereo not drawn) [Example 207, 5-pyrimidinecarboxamide, N-cyclohexyl-4-[1-(4-fluorophenyl)cyclopentyl]-N-methyl-2-[(4-methylcyclohexyl)amino]-] | 873
20 | CC1CCCN(c2ncc(C(=O)NCc3ccc(Cl)cc3Cl)c(C3(c4ccccc4)CCCC3)n2)C1 (stereo not drawn) [Example 112, 5-pyrimidinecarboxamide, N-[(2,4-dichlorophenyl)methyl]-2-(3-methyl-1-piperidinyl)-4-(1-phenylcyclopentyl)-] | 64

Same assay, conditions: hQ23 cells, thallium flux assay

Row | SMILES | EC50 [nM]
21 | O=C(NCc1cc(F)cc(C(F)(F)F)c1)c1cnc(N2CCCC2)nc1C1(c2ccc(F)cc2)CCCC1 [Example 275, 5-pyrimidinecarboxamide, 4-[1-(4-fluorophenyl)cyclopentyl]-N-[[3-fluoro-5-(trifluoromethyl)phenyl]methyl]-2-(1-pyrrolidinyl)-] | 24
22 | O=C(NCc1ccc(Cl)c(Cl)c1)c1cnc(NC2CCCC2)nc1C1(c2ccc(F)cc2)CCCC1 [Example 258, 5-pyrimidinecarboxamide, 2-(cyclopentylamino)-N-[(3,4-dichlorophenyl)methyl]-4-[1-(4-fluorophenyl)cyclopentyl]-] | 91
23 | CC(NC(=O)c1cnc(NC2CC2)nc1C1(c2ccc(F)cc2)CCCC1)c1cccc2ccccc12 (stereo not drawn) [Example 240, 5-pyrimidinecarboxamide, 2-(cyclopropylamino)-4-[1-(4-fluorophenyl)cyclopentyl]-N-[1-(1-naphthalenyl)ethyl]-] | 507
24 | CN(C)CCNc1ncc(C(=O)NCc2ccc3c(c2)OCO3)c(C2(c3ccc(F)cc3)CCCC2)n1 [Example 239, 5-pyrimidinecarboxamide, N-(1,3-benzodioxol-5-ylmethyl)-2-[[2-(dimethylamino)ethyl]amino]-4-[1-(4-fluorophenyl)cyclopentyl]-] | 792
